# Values of other authors, collected in patent US20030056236A1, “Model” (priority 2001, published 2003).
# Tested on: 5-HIAA levels
# Settings: after treatment; for elevate 5-HIAA levels: rat medial prefrontal cortex; for effect on 5-HIAA levels in the striatum: rat striatum
SMILES,elevate 5-HIAA levels,effect on 5-HIAA levels in the striatum
Cc1nc2n(c(=O)c1CCN1CCC(c3noc4cc(F)ccc34)CC1)CCCC2 [Risperidone],elevate,no effect
CCNC(=O)N1CCN(CCCC(c2ccc(F)cc2)c2ccc(F)cc2)CC1 [amperozide],elevate,no effect
Cc1nc2sccn2c(=O)c1CCN1CCC(=C(c2ccc(F)cc2)c2ccc(F)cc2)CC1 [ritanserin],to a lesser extent,no effect
